Here are results for one molecule from PMC12397098, “3-Monothiopomalidomide, a new immunomodulatory imide drug (IMiD), blunts inflammation and mitigates ischemic stroke in the rat” (GeroScience, 2025).

Read-outs that look alike come from different tables or passages of the source.

The nature of data set [1]: 3-MP nanosuspension time-dependent stability (LC-MS). The data set is classed as physicochemical. The protocol: Thalidomide, pomalidomide, and most related analogues have poor aqueous solubility. As a consequence, to aid biological evaluation, a 3-MP nanosuspension was prepared in line with our prior study. Specifically, the drug was mixed in an aqueous solution (Tween 80/water) and vortexed for 10 min. The coarse drug suspension was then placed in Eppendorf microtubes containing approximately 0.4 g of 0.1–0.2 mm yttrium-stabilized zirconia-silica beads (Silibeads® Typ ZY Sigmund Lindner, Germany). These were vortexed twice, at 3000 rpm for 45 min, using a beads-milling cell disruptor (Disruptor Genie®, Scientific Industries, USA). […] To evaluate the stability of the 3-MP nanosuspension, a vial (241 μM, 4 °C) was time-dependently sampled over a 98-day period, and the drug was quantified by LC–MS (see Supplementary information). […]
Nanoformulation LC/MS Assays: A rudimentary assay was devised to assess the relative stability of nanoformulated 3-MP. In short, a sample of nanoformulated 3-MP was monitored for degradation until, roughly, 10% of the original material was lost due to hydrolysis and other such factors. […] These samples were immediately analyzed. […] The areas of the ensuing UV peaks detected at 254nm served as the basis for analysis, and the stock nanoformulation was monitored as a function of derivation from the 3-MP nanoformulation t=0 area (defined as “100% Area Percent” in the initial trace). […]

Data set [2] can be described thus: Brain entry in rats (brain and plasma at 5 h). The data set is classed as in vivo. The following applies: male, Fischer 344, rat, brain. The protocol:
The animals were euthanized at 5 h post-dosing, and plasma and a brain sample were taken, frozen to − 80 °C, and later assayed for 3-MP by LC–MS/MS.
LC–MS/MS analysis was performed with a Vanquish Flex UHPLC (Thermo Scientific, Waltham MA, USA) and an Orbitrap Exploris 240 mass spectrometer (Thermo Scientific). Samples were separated on a C18 UHPLC column (100 mm × 2.1 mm, 3 μm; Thermo Scientific). The mobile phase A for LC separation was 0.1% formic acid and the mobile phase B was 0.1% formic acid in methanol. The chromatography gradient was initiated at 95% A and 5% B at zero time. This was continued for 1 min and, thereafter, linearly changed to 5% A and 95% B by 9 min. This was then maintained for a further 3 min. The flow rate was 0.3 mL/min, and the injection volume was 2 μl. Mass spectra were acquired using the data-dependent Top 4 MS2 (ddMS2) method with a mass scan (100–1000 m/z) and 120,000 MS resolution.

Data set [3] deals with MCAo-induced brain infarction. Put plainly: MCAo ischemic stroke: brain infarct volume (TTC). The class given is in vivo, rat. Conditions: 3-MP 10.58 and 21.17 mg/kg I.P. (doses combined), 48 h.
For data set [4] the following is noted: Sprague Dawley, rat, 1 μM.

In the case of `Nc1cccc2c1C(=S)N(C1CCC(=O)NC1=O)C2=O` (stereo not drawn) [3-MP, 3-Monothiopomalidomide], the “area of the 3-MP peak, relative intensity” value in data set [1] (nanoformulated 3-MP stock stored in the dark at 4 °C, t=98 days, UV 254 nm, relative to t=0) was “below 90%”. Also, in data set [1] (nanosuspension in Tween-80/water, 241 μM, 4 °C, 98-day period, LC–MS/MS), the “stability of 3-MP nanosuspension” value is recorded as “time-dependently stable”. Moreover, the Kp at 5 h in data set [2] (ip, 13.25 mg/kg, 13.25 mg/kg I.P., read-out: Brain/plasma ratio) was 0.52; in data set [2] (ip, 26.5 mg/kg, 26.5 mg/kg I.P., read-out: Brain/plasma ratio), 0.61; in data set [2] (other: I.P. or P.O., 13.25 or 26.50 mg/kg I.P. or P.O., read-out: brain concentrations as % of concomitant plasma levels) it was 0.51 to 0.61; in data set [2] (other: I.P. or oral (P.O.), across I.P. and P.O. doses, read-out: brain/plasma concentration ratio), 0.5 to 0.6; in data set [2] (po, 26.5 mg/kg, 26.5 mg/kg P.O., read-out: Brain/plasma ratio) it was 0.51. For the same molecule, the infarct volume in data set [3] (rat MCAo 60 min + reperfusion, TTC) came out at 4.32 ± 1.33%. Also, the “reduction of infarct volume versus MCAo + vehicle” value in data set [3] (rat MCAo) worked out at 56%. In data set [4] (60 min), the “reduction of 3-MP levels following 60-min incubation” value stood at 24.3%. In data set [4] (microsomes, 1 h), the “Remaining (NCF = 60 min)” value was determined as 116.4%. Further, the “Remaining (T = 60 min)” value in data set [4] (microsomes, 1 h) stood at 75.7%.
